Measured values as given in US12344600B2, “c-Myc mRNA translation modulators and uses thereof in the treatment of cancer” (Anima Biotech Inc., priority 2022, dated 2025).

Tested on: c-Myc
Assay: c-Myc immunofluorescence assay
Assay type: cell-based, human
Conditions: A549 cells, 24 hours, anti-c-Myc immunofluorescence
Procedure, shortened: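 A549 NSCLC cells grown 48 h, then treated 24 h with increasing compound concentrations; fixed in 4% paraformaldehyde, stained with anti-c-Myc antibody plus fluorescent secondary and DAPI. Per-cell c-Myc fluorescence quantified by high-content imaging at 20×; dose-response fitted by logistic regression to give EC50.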

| SMILES | Myc Efficacy (−LogEC50) |
| --- | --- |
| COc1ccc(-c2noc(N3CCC(C(=O)NCC4CCN(Cc5ccccc5C)C4)CC3)n2)cc1 (stereo not drawn) [Compound 328, 1-(3-(4-methoxyphenyl)-1,2,4-oxadiazol-5-yl)-N-((1-(2-methylbenzyl)pyrrolidin-3-yl)methyl)piperidine-4-carboxamide] | ++ (++ ≥5 and <6) |
| COc1ccc(-c2noc(N3CCC(C(=O)NCC4CCN(Cc5cnccc5C)C4)CC3)n2)cc1 (stereo not drawn) [Compound 329, 1-(3-(4-methoxyphenyl)-1,2,4-oxadiazol-5-yl)-N-((1-((4-methylpyridin-3-yl)methyl)pyrrolidin-3-yl)methyl)piperidine-4-carboxamide] | + (+ >3 and <5) |
| COc1ccc(-c2noc(N3CCC(C(=O)NCC4CCN(Cc5ccoc5)C4)CC3)n2)cc1 (stereo not drawn) [Compound 330, N-((1-(furan-3-ylmethyl)pyrrolidin-3-yl)methyl)-1-(3-(4-methoxyphenyl)-1,2,4-oxadiazol-5-yl)piperidine-4-carboxamide] | + (+ >3 and <5) |
| COc1ccc(-c2noc(N3CCC(C(=O)NCC4CCN(Cc5ccc(F)cc5)C4)CC3)n2)cc1 (stereo not drawn) [Compound 331, N-((1-(4-fluorobenzyl)pyrrolidin-3-yl)methyl)-1-(3-(4-methoxyphenyl)-1,2,4-oxadiazol-5-yl)piperidine-4-carboxamide] | ++ (++ ≥5 and <6) |
| COc1ccc(-c2noc(N3CCC(C(=O)NCC4CCN(Cc5cccc(F)c5)C4)CC3)n2)cc1 (stereo not drawn) [Compound 332, N-((1-(3-fluorobenzyl)pyrrolidin-3-yl)methyl)-1-(3-(4-methoxyphenyl)-1,2,4-oxadiazol-5-yl)piperidine-4-carboxamide] | ++ (++ ≥5 and <6) |
| COc1ccc(-c2noc(N3CCC(C(=O)NCC4CCN(Cc5cncc(F)c5)C4)CC3)n2)cc1 (stereo not drawn) [Compound 333, N-((1-((5-fluoropyridin-3-yl)methyl)pyrrolidin-3-yl)methyl)-1-(3-(4-methoxyphenyl)-1,2,4-oxadiazol-5-yl)piperidine-4-carboxamide] | + (+ >3 and <5) |
| COc1ccc(-c2noc(N3CCC(C(=O)NCC4CCN(Cc5ncccc5F)C4)CC3)n2)cc1 (stereo not drawn) [Compound 334, N-((1-((3-fluoropyridin-2-yl)methyl)pyrrolidin-3-yl)methyl)-1-(3-(4-methoxyphenyl)-1,2,4-oxadiazol-5-yl)piperidine-4-carboxamide] | + (+ >3 and <5) |
| COc1ccc(-c2noc(N3CCC(C(=O)NCC4CCN(Cc5ccc(F)cn5)C4)CC3)n2)cc1 (stereo not drawn) [Compound 335, N-((1-((5-fluoropyridin-2-yl)methyl)pyrrolidin-3-yl)methyl)-1-(3-(4-methoxyphenyl)-1,2,4-oxadiazol-5-yl)piperidine-4-carboxamide] | ++ (++ ≥5 and <6) |
| COc1ccc(-c2noc(N3CCC(C(=O)NCC4CCN(CC5CCC5)C4)CC3)n2)cc1 (stereo not drawn) [Compound 336, N-((1-(cyclobutylmethyl)pyrrolidin-3-yl)methyl)-1-(3-(4-methoxyphenyl)-1,2,4-oxadiazol-5-yl)piperidine-4-carboxamide] | ++ (++ ≥5 and <6) |
| COc1ccc(-c2noc(N3CCC(C(=O)NCC4CCN(CC5CC5(C)C)C4)CC3)n2)cc1 (stereo not drawn) [Compound 337, N-((1-((2,2-dimethylcyclopropyl)methyl)pyrrolidin-3-yl)methyl)-1-(3-(4-methoxyphenyl)-1,2,4-oxadiazol-5-yl)piperidine-4-carboxamide] | ++ (++ ≥5 and <6) |
| COc1ccc(-c2noc(N3CCC(C(=O)NCC4CCN(CC5CCCCC5)C4)CC3)n2)cc1 (stereo not drawn) [Compound 338, N-((1-(cyclohexylmethyl)pyrrolidin-3-yl)methyl)-1-(3-(4-methoxyphenyl)-1,2,4-oxadiazol-5-yl)piperidine-4-carboxamide] | ++ (++ ≥5 and <6) |
| COc1ccc(-c2noc(N3CCC(C(=O)NCC4CCN(Cc5ccc(O)cc5)C4)CC3)n2)cc1 (stereo not drawn) [Compound 339, N-((1-(4-hydroxybenzyl)pyrrolidin-3-yl)methyl)-1-(3-(4-methoxyphenyl)-1,2,4-oxadiazol-5-yl)piperidine-4-carboxamide] | ++ (++ ≥5 and <6) |
| COc1ccc(-c2noc(N3CCC(C(=O)NCC4CCN(Cc5ccccn5)C4)CC3)n2)cc1 (stereo not drawn) [Compound 340, 1-(3-(4-methoxyphenyl)-1,2,4-oxadiazol-5-yl)-N-((1-(pyridin-2-ylmethyl)pyrrolidin-3-yl)methyl)piperidine-4-carboxamide] | ++ (++ ≥5 and <6) |
| COc1ccc(-c2noc(N3CCC(C(=O)NCC4CCN(Cc5cncs5)C4)CC3)n2)cc1 (stereo not drawn) [Compound 341, 1-(3-(4-methoxyphenyl)-1,2,4-oxadiazol-5-yl)-N-((1-(thiazol-5-ylmethyl)pyrrolidin-3-yl)methyl)piperidine-4-carboxamide] | + (+ >3 and <5) |
| COc1ccc(-c2noc(N3CCC(C(=O)NCC4CCN(Cc5ccccc5)C4)CC3)n2)cc1 (stereo not drawn) [Compound 342, N-((1-benzylpyrrolidin-3-yl)methyl)-1-(3-(4-methoxyphenyl)-1,2,4-oxadiazol-5-yl)piperidine-4-carboxamide] | ++ (++ ≥5 and <6) |
| COc1ccc(-c2noc(N3CCC(C(=O)NCC4CCN(CC(F)(F)F)C4)CC3)n2)cc1 (stereo not drawn) [Compound 343, 1-(3-(4-methoxyphenyl)-1,2,4-oxadiazol-5-yl)-N-((1-(2,2,2-trifluoroethyl)pyrrolidin-3-yl)methyl)piperidine-4-carboxamide] | + (+ >3 and <5) |
| C#CCCC1(CCOc2cc(-c3noc(N4CCC(C(=O)NCC5CCN(Cc6ccc(C)cc6)C5)CC4)n3)ccc2OC)N=N1 (stereo not drawn) [Compound 344, 1-(3-(3-(2-(3-(but-3-yn-1-yl)-3H-diazirin-3-yl)ethoxy)-4-methoxyphenyl)-1,2,4-oxadiazol-5-yl)-N-((1-(4-methylbenzyl)pyrrolidin-3-yl)methyl)piperidine-4-carboxamide] | ++ (++ ≥5 and <6) |
| COc1ccc(-c2noc(N3CCN(C(=O)NCC4CCN(c5ccccc5)C4)CC3)n2)cc1 (stereo not drawn) [Compound 345, 4-(3-(4-methoxyphenyl)-1,2,4-oxadiazol-5-yl)-N-((1-phenylpyrrolidin-3-yl)methyl)piperazine-1-carboxamide] | + (+ >3 and <5) |
| COc1ccc(-c2noc(N3CCC(C(=O)NC4CCN(c5ccccc5)C4)CC3)n2)cc1 (stereo not drawn) [Compound 346, 1-(3-(4-methoxyphenyl)-1,2,4-oxadiazol-5-yl)-N-(1-phenylpyrrolidin-3-yl)piperidine-4-carboxamide] | ++ (++ ≥5 and <6) |
| COc1ccc(-c2noc(N3CCC(C(=O)NCC4CCN(CC5CCOC5)C4)CC3)n2)cc1 (stereo not drawn) [Compound 347, 1-(3-(4-methoxyphenyl)-1,2,4-oxadiazol-5-yl)-N-((1-((tetrahydrofuran-3-yl)methyl)pyrrolidin-3-yl)methyl)piperidine-4-carboxamide] | + (+ >3 and <5) |
| COc1ccc(-c2noc(N3CCC(C(=O)NCC4CCN(Cc5ccncc5C)C4)CC3)n2)cc1 (stereo not drawn) [Compound 348, 1-(3-(4-methoxyphenyl)-1,2,4-oxadiazol-5-yl)-N-((1-((3-methylpyridin-4-yl)methyl)pyrrolidin-3-yl)methyl)piperidine-4-carboxamide] | ++ (++ ≥5 and <6) |
